Test results from patent publication US9908886B2 (Agency for Science, Technology and Research, priority 2012, dated 2018).
Where a name gives a salt, the structure may show the parent alone.

Key:
[1] = target: MNK1 (Homo sapiens, UniProt Q9BUB5); assay: In vitro MNK kinase assay (Caliper LabChip mobility shift); format: biochemical; conditions: enzymatic, 1.2 mM ATP; read-out: IC50 Mnk1
[2] = target: MNK2 (Homo sapiens (Human), UniProt Q9HBH9); assay: as above; format: biochemical; conditions: enzymatic, 250 μM ATP; read-out: IC50 Mnk2
Chain of MNK2 (Q9HBH9 84-388): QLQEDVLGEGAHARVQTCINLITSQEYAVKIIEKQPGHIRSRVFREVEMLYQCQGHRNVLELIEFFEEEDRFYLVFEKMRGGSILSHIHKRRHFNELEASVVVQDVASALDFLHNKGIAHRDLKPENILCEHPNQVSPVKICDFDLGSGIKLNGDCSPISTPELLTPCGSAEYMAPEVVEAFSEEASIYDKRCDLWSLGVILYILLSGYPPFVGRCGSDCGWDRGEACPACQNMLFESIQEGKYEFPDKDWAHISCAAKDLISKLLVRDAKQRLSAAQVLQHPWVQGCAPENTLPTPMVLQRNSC

SMILES	IC50 [1] [nM]	IC50 [2] [nM]
CC1(C)CCN(C(=O)c2ccc(-c3cn4c(-c5ccc(C(N)=O)cc5)cnc4cn3)cc2)CC1 [Example 3, 4-(6-(4-(4,4-dimethylpiperidine-1-carbonyl)phenyl)imidazo[1,2-a]pyrazin-3-yl)benzamide]	< 1000	< 100
NC(=O)c1ccc(-c2cnc3cnc(-c4ccc(C(=O)N5CCC(N)CC5)cc4)cn23)cc1 [Example 4, 4-(6-(4-(4-aminopiperidine-1-carbonyl)phenyl)imidazo[1,2-a]pyrazin-3-yl)benzamide hydrochloride]	< 100	< 100
CC(C)(C)N1CCN(C(=O)c2ccc(-c3cn4c(-c5ccc(C(N)=O)cc5)cnc4cn3)cc2)CC1 [Example 5, 4-(6-(4-(4-tert-butylpiperazine-1-carbonyl)phenyl)imidazo[1,2-a]pyrazin-3-yl)benzamide]	< 100	< 100
N#Cc1ccc(-c2cnc3cnc(-c4ccc(C(=O)N5CCOCC5)cc4)cn23)cc1 [Example 7, 4-(6-(4-(morpholine-4-carbonyl)phenyl)imidazo[1,2-a]pyrazin-3-yl)benzonitrile]	< 1000	< 1000
CNC1CCN(C(=O)c2ccc(-c3cn4c(-c5ccc(C#N)cc5)cnc4cn3)cc2)CC1 [Example 9, 4-(6-(4-(4-(methylamino)piperidine-1-carbonyl)phenyl)imidazo[1,2-a]pyrazin-3-yl)benzonitrile]	< 1000	< 1000
N#Cc1ccc(-c2cnc3cnc(-c4ccc(C(=O)N5CCN(C6CC6)CC5)cc4)cn23)cc1 [Example 14, 4-(6-(4-(4-cyclopropylpiperazine-1-carbonyl)phenyl)imidazo[1,2-a]pyrazin-3-yl)benzonitrile]	< 1000	< 1000
N#Cc1ccc(-c2cnc3cnc(-c4ccc(C(=O)N5CCC(O)CC5)cc4)cn23)cc1 [Example 15, 4-(6-(4-(4-hydroxypiperidine-1-carbonyl)phenyl)imidazo[1,2-a]pyrazin-3-yl)benzonitrile]	< 1000	< 1000
CN1CCCN(C(=O)c2ccc(-c3cn4c(-c5ccc(C#N)cc5)cnc4cn3)cc2)CC1 [Example 17, 4-(6-(4-(4-methyl-1,4-diazepane-1-carbonyl)phenyl)imidazo[1,2-a]pyrazin-3-yl)benzonitrile]	< 1000	< 1000
CN(C)C1CCN(C(=O)c2ccc(-c3cn4c(-c5ccc(C#N)cc5)cnc4cn3)cc2)CC1 [Example 21, 4-(6-(4-(4-(dimethylamino)piperidine-1-carbonyl)phenyl)imidazo[1,2-a]pyrazin-3-yl)benzonitrile]	< 1000	< 1000
CC1(N)CCN(C(=O)c2ccc(-c3cn4c(-c5ccc(C#N)cc5)cnc4cn3)cc2)CC1 [Example 23, 4-(6-(4-(4-amino-4-methylpiperidine-1-carbonyl)phenyl)imidazo[1,2-a]pyrazin-3-yl)benzonitrile Hydrochloride Salt]	< 1000	< 100
N#Cc1ccc(-c2cnc3cnc(-c4ccc(C(=O)N5CCC6(CC5)COC6)cc4)cn23)cc1 [Example 24, 4-(6-(4-(2-oxa-7-azaspiro[3.5]nonane-7-carbonyl)phenyl)imidazo[1,2-a]pyrazin-3-yl)benzonitrile]	< 1000	< 1000
CC(C)(C)N1CCN(C(=O)c2ccc(-c3cn4c(-c5ccc(C#N)cc5)cnc4cn3)cc2)CC1 [Example 26, 4-(6-(4-(4-tert-butylpiperazine-1-carbonyl)phenyl)imidazo[1,2-a]pyrazin-3-yl)benzonitrile]	< 1000	< 1000
Cc1cc(-c2cn3c(-c4ccc(C#N)cc4)cnc3cn2)ccc1C(=O)N1CCC(C)(N)CC1 [Example 28, 4-(6-(4-(4-amino-4-methylpiperidine-1-carbonyl)-3-methylphenyl)imidazo[1,2-a]pyrazin-3-yl)benzonitrile]	< 100	< 100
N#Cc1ccc(-c2cnc3cnc(-c4ccc(C(=O)N5CCC(N)CC5)c(F)c4)cn23)cc1 [Example 29, 4-(6-(4-(4-aminopiperidine-1-carbonyl)-3-fluorophenyl)imidazo[1,2-a]pyrazin-3-yl)benzonitrile]	< 1000	< 1000
CC1(N)CCN(C(=O)c2ccc(-c3cn4c(-c5ccc(C#N)cc5)cnc4cn3)cc2F)CC1 [Example 30, 4-(6-(4-(4-amino-4-methylpiperidine-1-carbonyl)-3-fluorophenyl)imidazo[1,2-a]pyrazin-3-yl)benzonitrile]	< 1000	< 1000
N#Cc1ccc(-c2cnc3cnc(-c4ccc(C(=O)N5CCC(N)CC5)c(Cl)c4)cn23)cc1 [Example 31, 4-(6-(4-(4-aminopiperidine-1-carbonyl)-3-chlorophenyl)imidazo[1,2-a]pyrazin-3-yl)benzonitrile]	< 1000	< 1000
CC1(N)CCN(C(=O)c2ccc(-c3cn4c(-c5ccc(C#N)cc5)cnc4cn3)cc2Cl)CC1 [Example 32, 4-(6-(4-(4-amino-4-methylpiperidine-1-carbonyl)-3-chlorophenyl)imidazo[1,2-a]pyrazin-3-yl)benzonitrile]	< 100	< 1000

SMILES	IC50 [1] [nM]	IC50 [2] [nM]
CN1CCN(C(=O)c2ccc(-c3cn4c(-c5ccc(C#N)cc5)cnc4cn3)c(O)c2)CC1 [Example 38, 4-(6-(2-hydroxy-4-(4-methylpiperazine-1-carbonyl)phenyl)imidazo[1,2-a]pyrazin-3-yl)benzonitrile]	< 1000	< 1000
COc1cc(-c2cn3c(-c4ccc(C#N)cc4)cnc3cn2)ccc1C(=O)N1CCN(C)CC1 [Example 39, 4-(6-(3-methoxy-4-(4-methylpiperazine-1-carbonyl)phenyl)imidazo[1,2-a]pyrazin-3-yl)benzonitrile]	< 1000	< 1000
CN1CCN(C(=O)c2ccc(-c3cn4c(-c5ccc(Cl)cc5)cnc4cn3)cc2)CC1 [Example 41, (4-(3-(4-chlorophenyl)imidazo[1,2-a]pyrazin-6-yl)phenyl)(4-methylpiperazin-1-yl)methanone]	< 1000	< 1000
NC(=O)c1ccc(-c2cn3c(-c4ccc(Cl)cc4)cnc3cn2)cc1 [Example 42, 4-(3-(4-chlorophenyl)imidazo[1,2-a]pyrazin-6-yl)benzamide]	< 1000	< 1000
O=C1CCN(C(=O)c2ccc(-c3cn4c(-c5ccc(Cl)cc5)cnc4cn3)cc2)CC1 [Example 43, 1-(4-(3-(4-chlorophenyl)imidazo[1,2-a]pyrazin-6-yl)benzoyl)piperidin-4-one]	< 1000	< 1000
CCN1CCN(C(=O)c2ccc(-c3cn4c(-c5ccc(Cl)cc5)cnc4cn3)cc2)CC1 [Example 45, (4-(3-(4-chlorophenyl)imidazo[1,2-a]pyrazin-6-yl)phenyl)(4-ethylpiperazin-1-yl)methanone]	< 1000	< 1000
O=C(c1ccc(-c2cn3c(-c4ccc(Cl)cc4)cnc3cn2)cc1)N1CCNCC1 [Example 46, (4-(3-(4-chlorophenyl)imidazo[1,2-a]pyrazin-6-yl)phenyl)(piperazin-1-yl)methanone 2,2,2-trifluoroacetate salt]	< 1000	< 1000
O=C(c1ccc(-c2cn3c(-c4ccc(Cl)cc4)cnc3cn2)cc1)N1CCC(NC(=O)C(F)(F)F)CC1 [Example 48, N-(1-(4-(3-(4-chlorophenyl)imidazo[1,2-a]pyrazin-6-yl)benzoyl)piperidin-4-yl)-2,2,2-trifluoroacetamide]	< 1000	
N#Cc1ccc(-c2cnc3ccc(-c4ccc(C(=O)N5CCC(O)CC5)cc4)nn23)cc1 [Example 55, 4-(6-(4-(4-hydroxypiperidine-1-carbonyl)phenyl)imidazo[1,2-b]pyridazin-3-yl)benzonitrile]	< 100	< 100
N#Cc1ccc(-c2cnc3ccc(-c4ccc(C(=O)N5CCC(N)CC5)cc4)nn23)cc1 [Example 56, 4-(6-(4-(4-aminopiperidine-1-carbonyl)phenyl)imidazo[1,2-b]pyridazin-3-yl)benzonitrile]	< 100	< 100
CC(=O)NC1CCN(C(=O)c2ccc(-c3ccc4ncc(-c5ccc(C#N)cc5)n4n3)cc2)CC1 [Example 57, N-(1-(4-(3-(4-cyanophenyl)imidazo[1,2-b]pyridazin-6-yl)benzoyl)piperidin-4-yl)acetamide]	< 100	< 100
CC1(N)CCN(C(=O)c2ccc(-c3ccc4ncc(-c5ccc(C#N)cc5)n4n3)cc2)CC1 [Example 58, 4-(6-(4-(4-amino-4-methylpiperidine-1-carbonyl)phenyl)imidazo[1,2-b]pyridazin-3-yl)benzonitrile]	< 100	< 100
CC(C)N1CCN(C(=O)c2ccc(-c3ccc4ncc(-c5ccc(C#N)cc5)n4n3)cc2)CC1 [Example 59, 4-(6-(4-(4-isopropylpiperazine-1-carbonyl)phenyl)imidazo[1,2-b]pyridazin-3-yl)benzonitrile]	< 100	< 100
CNC1CCN(C(=O)c2ccc(-c3ccc4ncc(-c5ccc(C#N)cc5)n4n3)cc2)CC1 [Example 60, 4-(6-(4-(4-(methylamino)piperidine-1-carbonyl)phenyl)imidazo[1,2-b]pyridazin-3-yl)benzonitrile]	< 100	< 100
CN(C)C1CCN(C(=O)c2ccc(-c3ccc4ncc(-c5ccc(C#N)cc5)n4n3)cc2)CC1 [Example 63, 4-(6-(4-(4-(dimethylamino)piperidine-1-carbonyl)phenyl)imidazo[1,2-b]pyridazin-3-yl)benzonitrile]	< 100	< 100
N#Cc1ccc(-c2cnc3ccc(-c4ccc(C(=O)N5CCCOCC5)cc4)nn23)cc1 [Example 64, 4-(6-(4-(1,4-oxazepane-4-carbonyl)phenyl)imidazo[1,2-b]pyridazin-3-yl)benzonitrile]	< 100	< 100
CN1CCN(C(=O)c2ccc(-c3ccc4ncc(-c5ccc(O)cc5)n4c3)cc2)CC1 [Example 175, (4-(3-(4-hydroxyphenyl)imidazo[1,2-a]pyridin-6-yl)phenyl)(4-methylpiperazin-1-yl)methanone]		< 100
